According to patent US9034899B2, “Aryl, heteroaryl, and heterocycle substituted tetrahydroisoquinolines and use thereof” (Albany Molecular Research, Inc., priority 2009, dated 2015):
Read-outs that look alike come from different tables or passages of the source.

Key:
hDAT = hDAT (Homo sapiens (Human), UniProt Q01959); experiment: DAT radioligand binding assay ([125I]RTI-55, HEK-293 membranes)
Procedure: (§1) Recombinant HEK-293 cells expressing either the hSERT, hDAT, or hNET proteins were harvested from T-175 flasks as follows. The medium was removed from the flasks and the cells rinsed with HBSS without Ca and without Mg. The cells were then incubated for 5-10 minutes in 10 mM Tris-Cl, pH 7.5, 5 mM EDTA before the cells were lifted with a combination of pipetting and scraping, as needed. The cell suspension was collected into centrifuge bottles and homogenized for 30 seconds with a Polytron homogenizer. The suspension was centrifuged for 30 minutes at 32,000×g, 4° C. The supernatant was decanted and the pellet resuspended and homogenized in 50 mM Tris-Cl, pH 7.5, 1 mM EDTA for 10 seconds. The suspension was then centrifuged again for 30 minutes at 32,000×g, 4° C. The supernatant was decanted and the pellet resuspended in 50 mM Tris-Cl, pH 7.5, 1 mM EDTA and briefly homogenized. A Bradford assay (Bio-rad) was performed and the membrane preparation diluted to 2 mg/ml with 50 mM Tris-Cl, pH 7.5, 1 mM EDTA. Aliquots were prepared, and then frozen and stored at −80° C.
Compounds were dissolved in 100% DMSO at a concentration 100 times the desired highest assay concentration, serially diluted 1:3 in 100% DMSO, and 0.4 μl/well of each solution was dispensed to a Nunc polypropylene, round bottom, 384-well plate. 100% inhibition is defined with 0.4 μl/well of 1 mM GBR-12935 dissolved in DMSO. 20 ul/well of a 2× membrane preparation (12.5 μg/ml in 30 mM sodium phosphate buffer, pH 7.9 at 4° C.) and 20 μl/well of a 2× radioligand solution ([…] [^125I]RTI-55 in 30 mM sodium phosphate buffer, pH 7.9 at 4° C.) were added to the well and the reaction incubated for 1 hour at room temperature. The contents of the assay plate were then transferred to a Millipore MultiscreenHTS GF/B filter plate which was pretreated with 0.5% PEI for at least one hour. The plate was vacuum-filtered and washed with 7 washes of 100 μl/well 50 mM Tris-Cl, pH 7.5, 120 mM NaCl, 5 mM KCl chilled to 4° C. The filtration and washing were completed in less than 90 seconds. The plates were air-dried overnight, 12 μl/well of MicroScint scintillation fluid added, and the plates counted in a Trilux.
(§2) The raw data was normalized to percent inhibition using control wells defining 0% (DMSO only) and 100% (selective inhibitor) inhibition which were run on each plate. Each plate was run in triplicate, and the concentration response curve thus generated was fit using the four-parameter dose response equation, Y=Bottom+(Top-Bottom)/(1+10^((LogIC50−X)*HillSlope)) in order to determine the IC50 value for each compound. The radioligand concentration chosen for each assay corresponds to the Kd concentration determined through saturation binding analysis for each assay.

hNET = hNET (Homo sapiens (Human), UniProt P23975); experiment: NET radioligand binding assay ([3H]nisoxetine, HEK-293 membranes); details: for IC50: (+)-enantiomers
Chain of hNET (P23975 whole entry): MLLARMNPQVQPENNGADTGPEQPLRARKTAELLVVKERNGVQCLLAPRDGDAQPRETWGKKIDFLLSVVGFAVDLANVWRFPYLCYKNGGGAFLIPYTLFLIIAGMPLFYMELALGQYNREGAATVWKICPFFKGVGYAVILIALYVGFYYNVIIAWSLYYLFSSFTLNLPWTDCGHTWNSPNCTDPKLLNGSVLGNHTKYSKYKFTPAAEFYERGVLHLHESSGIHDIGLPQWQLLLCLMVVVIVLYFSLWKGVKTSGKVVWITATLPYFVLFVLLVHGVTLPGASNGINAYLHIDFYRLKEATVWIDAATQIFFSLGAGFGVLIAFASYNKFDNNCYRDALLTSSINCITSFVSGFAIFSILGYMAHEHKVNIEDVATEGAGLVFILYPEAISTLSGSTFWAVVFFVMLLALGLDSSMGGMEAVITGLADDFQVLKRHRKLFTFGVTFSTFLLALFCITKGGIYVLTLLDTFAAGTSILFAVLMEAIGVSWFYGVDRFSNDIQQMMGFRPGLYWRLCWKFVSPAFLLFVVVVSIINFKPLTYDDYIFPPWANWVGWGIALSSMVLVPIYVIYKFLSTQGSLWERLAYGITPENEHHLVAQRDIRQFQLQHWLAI
Procedure: as §1
(§3) Compounds were dissolved in 100% DMSO at a concentration 100 times the desired highest assay concentration, serially diluted 1:3 in 100% DMSO, and 1.0 μl/well of each solution was dispensed to a Nunc polypropylene, round bottom, 384-well plate. 100% inhibition is defined with 1.0 μl/well of 10 mM desipramine dissolved in DMSO. 50 μl/well of a 2× membrane preparation (0.4 mg/ml in 50 mM Tris-Cl, pH 7.5, 120 mM NaCl, 5 mM KCl) and 50 μl/well of a 2× radioligand solution (4 nM [^3H]nisoxetine in 50 mM Tris-Cl, pH 7.5, 120 mM NaCl, 5 mM KCl) were added to the well and the reaction incubated for 1 hour at room temperature. The contents of the assay plate were then transferred to a Millipore MultiscreenHTS GF/B filter plate which was pretreated with 0.5% PEI for at least one hour. The plate was vacuum filtered and washed with 7 washes of 100 μl/well 50 mM Tris-Cl, pH 7.5, 120 mM NaCl, 5 mM KCl chilled to 4° C. The filtration and washing were completed in less than 90 seconds. The plates were air-dried overnight, 12 μl/well of MicroScint scintillation fluid added, and the plates counted in a Trilux.
as §2

hSERT = hSERT (Homo sapiens (Human), UniProt P31645); experiment: SERT radioligand binding assay ([125I]RTI-55, HEK-293 membranes)
Chain of hSERT (P31645 whole entry): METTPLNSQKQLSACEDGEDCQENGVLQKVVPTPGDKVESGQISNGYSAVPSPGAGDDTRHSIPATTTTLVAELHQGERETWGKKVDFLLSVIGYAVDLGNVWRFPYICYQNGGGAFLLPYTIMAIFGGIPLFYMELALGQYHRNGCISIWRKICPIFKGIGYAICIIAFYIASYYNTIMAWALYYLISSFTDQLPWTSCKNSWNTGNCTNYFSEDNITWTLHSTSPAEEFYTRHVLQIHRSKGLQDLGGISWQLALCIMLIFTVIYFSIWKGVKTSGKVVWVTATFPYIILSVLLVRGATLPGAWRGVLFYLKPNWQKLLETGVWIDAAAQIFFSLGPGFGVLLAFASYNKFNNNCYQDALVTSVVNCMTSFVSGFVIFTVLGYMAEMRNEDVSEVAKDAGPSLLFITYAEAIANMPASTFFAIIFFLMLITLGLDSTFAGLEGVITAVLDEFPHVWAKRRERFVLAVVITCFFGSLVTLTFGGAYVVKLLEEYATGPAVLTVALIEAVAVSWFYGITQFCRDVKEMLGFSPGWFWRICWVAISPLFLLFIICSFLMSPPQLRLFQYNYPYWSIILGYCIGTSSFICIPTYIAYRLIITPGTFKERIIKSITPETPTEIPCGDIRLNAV
Procedure: as §1, with “The” for “Recombinant HEK-293 cells expressing either the hSERT, hDAT, or hNET proteins were harvested from T-175 flasks as follows. The”
as §3, with “0.4” for “1.0”, “100% inhibition is defined with 1.0 μl/well of 10 mM desipramine dissolved in DMSO. 50 μl/well of a 2× membrane preparation (0.4 mg/ml in 50 mM Tris-Cl, pH 7.5, 120 mM NaCl, 5 mM KCl) and 50 μl/well of a 2× radioligand solution (4 nM [^3H]nisoxetine in 50 mM Tris-Cl, pH 7.5, 120 mM NaCl, 5 mM KCl) were added to the well and the reaction incubated for 1 hour at room temperature.” left out
as §2, with “Each” for “The raw data was normalized to percent inhibition using control wells defining 0% (DMSO only) and 100% (selective inhibitor) inhibition which were run on each plate. Each”

NET = experiment: Occupancy assay, ex vivo binding in brain tissue, NET; details: dose 1 mg/kg, time point 3 h
Description: (§4) The general procedure for brain tissue collection and transporter occupancy assessment is briefly described as follows. Mice were sacrificed by asphyxiation in CO2, rats by decapitation and dogs by IV injection of euthanasia solution. For mice and rats, after the brains were removed from the skull, the forebrain tissue (removal of the brainstem and cerebellum) was used for SERT, NET, and DAT occupancy assessment. In dogs, the striatum was dissected for DAT occupancy and the remaining forebrain tissue (without the striatum, brainstem, and cerebellum) was used for SERT and NET occupancy assessment. The brain tissues were frozen in chilled isopentane and stored at −80° C. until homogenization.
(§5) The brain tissues were thawed and then homogenized using a polytron homogenizer (Kinematica). Sample aliquots were frozen immediately and stored at −80° C. Protein content was measured for each sample using a Coomassie protein assay kit (Pierce).
(§6) On the day of ex vivo binding for occupancy assessment, frozen sample aliquots were thawed and needle homogenized, and 100 μg of the tissue was incubated for SERT, NET, and DAT binding under assay conditions summarized in Table 2. […] The filters were washed twice with ice-cold incubation buffer, punched into a clear plate prior to the addition of 200 ul scintillation fluid per well. Radioligand was measured using a Wallac Microbeta liquid scintillation counter.
(§7) The specific binding was calculated by subtracting the value of the non-specific binding from that of the total binding in each sample. The percent occupancy was calculated as (1−specific binding in drug treated/specific binding in vehicle treated)×100%. […] Nonlinear regression was performed using GraphPad Prism version 3.00 (GraphPad Software, San Diego, Calif.).

Male Swiss Webster mice = experiment: Mouse tail suspension assay; type: in vivo; details: mouse tail suspension study, acute administration
Procedure: Male Swiss Webster mice were housed 3-4 per cage in rooms maintained at a constant temperature (21-23° C.) and humidity (50±10%) on a 12-hour light/dark cycle. Animals had ad libitum access to water and food throughout studies. On the day of testing, they were brought into the testing room and allowed to acclimate for one hour.
To begin testing, the tail was attached to a piece of tape which ias then attached to a hook on the ceiling of a sound-attenuated chamber. Immobility was automatically recorded using the Med Associates software. Compounds were administered acutely at a fixed pretreatment interval before session.

SERT = experiment: Occupancy assay, ex vivo binding in brain tissue, SERT; details: dose 1 mg/kg, time point 3 h
Description: as §4, §5
On the day of ex vivo binding for occupancy assessment, frozen sample aliquots were thawed and needle homogenized, and 100 μg of the tissue was incubated for SERT, NET, and DAT binding under assay conditions summarized in Table 2. After incubation, the reactions were terminated by the addition of ice-cold assay buffer and rapid filtration through a Brandel Cell Harvester using FPXLR-196 filters. The filters were washed twice with ice-cold incubation buffer, punched into a clear plate prior to the addition of 200 ul scintillation fluid per well. Radioligand was measured using a Wallac Microbeta liquid scintillation counter.
The specific binding was calculated by subtracting the value of the non-specific binding from that of the total binding in each sample. The percent occupancy was calculated as (1−specific binding in drug treated/specific binding in vehicle treated)×100%. For estimation of in vivo occupancy EC50 (total plasma concentration of compound producing 50% occupancy), plots of occupancy values versus plasma concentrations were fitted to a one-site binding model using nonlinear regression according to the following equation: % Occupancy=Emax*C/(EC50+C) where Emax is the maximal specific binding, C is the drug concentration, and EC50 is the total plasma concentration required for 50% binding site occupancy. Nonlinear regression was performed using GraphPad Prism version 3.00 (GraphPad Software, San Diego, Calif.).

DAT = experiment: Occupancy assay, ex vivo binding in brain tissue, DAT; details: dose 1 mg/kg, time point 3 h
Description: as §4, §5, §6, §7

[1] = (+)-enantiomers, read-out: DAT IC50
[2] = (+)-enantiomers, read-out: SERT IC50

Chain of hDAT (Q01959 whole entry): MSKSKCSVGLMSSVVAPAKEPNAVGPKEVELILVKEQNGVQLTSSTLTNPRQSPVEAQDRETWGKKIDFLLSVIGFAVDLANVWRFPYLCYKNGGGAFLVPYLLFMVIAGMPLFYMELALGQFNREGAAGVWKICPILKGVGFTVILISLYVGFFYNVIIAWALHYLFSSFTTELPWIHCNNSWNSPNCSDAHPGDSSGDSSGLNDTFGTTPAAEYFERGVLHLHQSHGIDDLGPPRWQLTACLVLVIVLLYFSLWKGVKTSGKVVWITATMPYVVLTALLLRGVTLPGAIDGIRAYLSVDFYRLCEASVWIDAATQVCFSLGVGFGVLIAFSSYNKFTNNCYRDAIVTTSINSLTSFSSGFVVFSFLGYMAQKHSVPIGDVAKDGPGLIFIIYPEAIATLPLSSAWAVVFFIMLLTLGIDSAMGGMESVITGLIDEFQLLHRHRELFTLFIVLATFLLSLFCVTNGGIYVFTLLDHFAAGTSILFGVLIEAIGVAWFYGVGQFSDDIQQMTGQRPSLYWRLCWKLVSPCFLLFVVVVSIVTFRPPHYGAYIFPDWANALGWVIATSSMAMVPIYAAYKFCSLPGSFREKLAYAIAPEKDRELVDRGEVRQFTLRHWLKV

FC(F)(F)c1ccc(-c2ccc3c(c2)NCCC3c2ccc(Cl)cc2)nn1 (single isomer, unassigned; (+)) [Example 4, (+)-4-(4-chlorophenyl)-7-(6-(trifluoromethyl)pyridazin-3-yl)-1,2,3,4-tetrahydroquinoline]
IC50 (hDAT; [1]): 0.138 µM
IC50 (hNET): 0.0473 µM
IC50 (hSERT; [2]): 0.0214 µM

CNc1ccc(-c2ccc3c(c2)CNCC3c2ccc(F)cc2)nn1 (single isomer, unassigned; (+)) [Example 3, (+)-6-(4-(4-fluorophenyl)-1,2,3,4-tetrahydroisoquinolin-7-yl)-N-methylpyridazin-3-amine]
IC50 (hDAT; [1]): 0.0905 µM
IC50 (hNET): 0.15 µM
IC50 (hSERT; [2]): 0.0538 µM

Clc1ccc(C2CNCc3cc(-c4ccc5ncnn5c4)ccc32)cc1Cl (stereo not shown) [Example 36, 7-([1,2,4]triazolo[1,5-a]pyridin-6-yl)-4-(3,4-dichlorophenyl)-1,2,3,4-tetrahydroisoquinoline]
NET Occupancy % (NET): 11%
minimum effective dose (Male Swiss Webster mice): 10 mg/kg
SERT Occupancy % (SERT): 75%
DAT Occupancy % (DAT): 26%

Fc1cc2c(cc1-c1ccc3ncnn3c1)CNCC2c1ccc(Cl)c(Cl)c1 (single isomer, unassigned; (+)) [Example 39, (+)-7-([1,2,4]triazolo[1,5-a]pyridin-6-yl)-4-(3,4-dichlorophenyl)-6-fluoro-1,2,3,4-tetrahydroisoquinoline]
IC50 (hDAT; [1]): 0.0832 µM
IC50 (hNET): 0.0704 µM
IC50 (hSERT; [2]): 0.0141 µM

COc1ccc(-c2ccc3c(c2)C(C)NCC3c2ccc(Cl)cc2)nn1 (stereo not shown) [Example 8, 4-(4-Chloro-phenyl)-7-(6-methoxy-pyridazin-3-yl)-1-methyl-1,2,3,4-tetrahydro-isoquinoline]
inhibition at 0.1 µM (hDAT; 100 nM, DAT IC50 with footnote *): 30%
inhibition at 0.1 µM (hNET; 100 nM, NET IC50 with footnote *): 49%
inhibition at 0.1 µM (hSERT; 100 nM, SERT IC50 with footnote *): 59%

CC1(C)NCC(c2ccc(Cl)cc2)c2ccc(-c3ccc(C(F)(F)F)nn3)cc21 (single isomer, unassigned) [Example 35, 4-(4-chlorophenyl)-1,1-dimethyl-7-(6-(trifluoromethyl)pyridazin-3-yl)-1,2,3,4-tetrahydroisoquinoline]
IC50 (hDAT): 0.0802 µM
IC50 (hNET): 1.02 µM
IC50 (hSERT): 0.0611 µM

Nc1ccc(-c2ccc3c(c2)CNCC3c2ccc(Cl)cc2)nn1 (single isomer, unassigned; (+)) [Example 5, (+)-6-(4-(4-chlorophenyl)-1,2,3,4-tetrahydroisoquinolin-7-yl)pyridazin-3-amine]
IC50 (hDAT; [1]): 0.0312 µM
IC50 (hNET): 0.0631 µM
IC50 (hSERT; [2]): 0.0158 µM

Nc1ccc(-c2ccc3c(c2)CNCC3c2ccc(F)cc2)nn1 (stereo not shown) [Example 2, 6-(4-(4-fluorophenyl)-1,2,3,4-tetrahydroisoquinolin-7-yl)pyridazin-3-amine]
IC50 (hDAT; [1]): 0.0894 µM
IC50 (hNET): 0.36 µM
IC50 (hSERT; [2]): 0.144 µM

NC(=O)c1ccc(-c2cc3c(cc2F)C(c2ccc(Cl)cc2)CNC3)cc1 (stereo not shown) [Example 30, 4-(4-(4-chlorophenyl)-6-fluoro-1,2,3,4-tetrahydroisoquinolin-7-yl)benzamide]
IC50 (hDAT; [1]): 0.0245 µM
IC50 (hNET): 0.215 µM
IC50 (hSERT; [2]): 0.101 µM

O=c1ccc(-c2cc3c(cc2F)C(c2ccc(Cl)c(Cl)c2)CNC3)n[nH]1 (stereo not shown) [Example 22, 6-(4-(3,4-dichlorophenyl)-6-fluoro-1,2,3,4-tetrahydroisoquinolin-7-yl)pyridazin-3(2H)-one]
IC50 (hDAT; [1]): 0.037 µM
IC50 (hNET): 0.063 µM
IC50 (hSERT; [2]): 0.039 µM
